Laboratory results: ChEMBL document CHEMBL1201862, “PubChem BioAssay data set” (2004)
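Values below derive from 48-hour exposures of cells grown in 96-well plates, with endpoints linearly interpolated between the two concentrations bracketing the appropriate inhibition level. The concentration for 50% growth inhibition is given as GI50.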 Active and inactive are the calls of the source. Rule as the data show it: active = GI50 up to about 1.1 µM and inactive = higher.

What was measured:
Test in all cases: growth of human tumour cells (NCI), 48 h
[1] = tested on: SN12C
[2] = tested on: NCI-H226
[3] = tested on: HT-29
[4] = tested on: SF-268
[5] = tested on: K562
[6] = tested on: HOP-62
[7] = tested on: MOLT-4
[8] = tested on: IGROV-1
[9] = tested on: OVCAR-5
[10] = tested on: OVCAR-8
[11] = tested on: HCT-15
[12] = tested on: M14
[13] = tested on: HCT-116
[14] = tested on: CCRF-CEM
[15] = tested on: BT-549
[16] = tested on: CAKI-1
[17] = tested on: MDA-N
[18] = tested on: MDA-MB-231
[19] = tested on: SR

Structure (SMILES) | GI50 [1] | GI50 [2] | GI50 [3] | GI50 [4] | GI50 [5] | GI50 [6] | GI50 [7] | GI50 [8] | GI50 [9] | GI50 [10] | GI50 [11] [µM] | GI50 [12] | GI50 [13] | GI50 [14] | GI50 [15] | GI50 [16] | GI50 [17] | GI50 [18] | GI50 [19]
c1cc2c(cc1C1OCC3C(c4ccc5c(c4)OCO5)OCC13)OCO2 (configuration not stated) | 92.3 µM (inactive) | 58.3 µM (inactive) | 35.6 µM (inactive) | > 100 µM (inactive) | 35.6 µM (inactive) | > 100 µM (inactive) | 34.1 µM (inactive) | 75.2 µM (inactive) | 55.6 µM (inactive) | 85.3 µM (inactive) | 50.6 | 66.8 µM (inactive) | 51.5 µM (inactive) | 32.3 µM (inactive) |  |  |  |  | 
CC(=O)N[C@@H](Cc1ccc(O)cn1)C(=O)NCc1ccc(Cl)cc1 | > 100 µM (inactive) | > 100 µM (inactive) | > 100 µM (inactive) |  | > 100 µM (inactive) | > 100 µM (inactive) | > 100 µM (inactive) | > 100 µM (inactive) | > 100 µM (inactive) | > 100 µM (inactive) | > 100 | > 100 µM (inactive) | > 100 µM (inactive) | 31.5 µM (inactive) | > 100 µM (inactive) | > 100 µM (inactive) | > 100 µM (inactive) |  | 
CCN1C2=NCCN2S(=O)(=O)c2ccccc21 | > 100 µM (inactive) | > 100 µM (inactive) | > 100 µM (inactive) | > 100 µM (inactive) | > 100 µM (inactive) | > 100 µM (inactive) | > 100 µM (inactive) | > 100 µM (inactive) | > 100 µM (inactive) | > 100 µM (inactive) | > 100 | > 100 µM (inactive) | > 100 µM (inactive) | > 100 µM (inactive) | > 100 µM (inactive) | > 100 µM (inactive) | > 100 µM (inactive) | > 100 µM (inactive) | 
CC(=O)c1ccc(N2CCN(C3=C(Cl)C(=O)c4c(O)ccc(O)c4C3=O)CC2)cc1 |  |  | 2.12 µM (inactive) | 3.1 µM (inactive) | 2.09 µM (inactive) | 8.95 µM (inactive) | 1.68 µM (inactive) | 4 µM (inactive) | 18.9 µM (inactive) | 3.86 µM (inactive) | 8.79 | 2.21 µM (inactive) | 3.5 µM (inactive) | 0.417 µM (active) |  | 4.89 µM (inactive) | 3.24 µM (inactive) | 2.51 µM (inactive) | 2 µM (inactive)
O=C1CCSSCCC(=O)Nc2ccccc2N1 | > 100 µM (inactive) | > 100 µM (inactive) | > 100 µM (inactive) | > 100 µM (inactive) | 53.5 µM (inactive) | > 100 µM (inactive) | 34 µM (inactive) | > 100 µM (inactive) | > 100 µM (inactive) | > 100 µM (inactive) | > 100 | > 100 µM (inactive) | > 100 µM (inactive) | > 100 µM (inactive) | > 100 µM (inactive) | > 100 µM (inactive) |  | > 100 µM (inactive) | > 100 µM (inactive)
CSCCC(NC(c1ccccc1)c1ccccc1)[PH](=O)O (configuration not stated) | > 100 µM (inactive) | > 100 µM (inactive) | > 100 µM (inactive) | > 100 µM (inactive) | > 100 µM (inactive) | > 100 µM (inactive) | > 100 µM (inactive) | > 100 µM (inactive) | > 100 µM (inactive) | > 100 µM (inactive) | > 100 | > 100 µM (inactive) | > 100 µM (inactive) | > 100 µM (inactive) | > 100 µM (inactive) | > 100 µM (inactive) | 10 µM (inactive) |  | > 100 µM (inactive)
CCCCN(CCCC)C(=O)/C(CC(=O)c1cccc2ccccc12)=N\NC(=O)c1cc2ccccc2cc1O | 18.5 µM (inactive) | 19.9 µM (inactive) | 23.8 µM (inactive) | 11.2 µM (inactive) |  | 20 µM (inactive) | 7.83 µM (inactive) | 15.3 µM (inactive) | 30.3 µM (inactive) | 16.4 µM (inactive) |  | 21.9 µM (inactive) | 13.1 µM (inactive) | 3.94 µM (inactive) |  |  |  |  | 
CC(C)(C)NC(=O)N1N=C(c2ccccc2)C1c1ccccc1 (configuration not stated) | 43.5 µM (inactive) | 48.4 µM (inactive) | 18 µM (inactive) | 66.5 µM (inactive) |  |  |  | 59.8 µM (inactive) | > 100 µM (inactive) | 40.2 µM (inactive) | 23.9 | 61.5 µM (inactive) | 19.7 µM (inactive) | 22.6 µM (inactive) | 29.9 µM (inactive) | 26.4 µM (inactive) | 44.6 µM (inactive) | 95.9 µM (inactive) | 
O=c1[nH]c(=O)n(CCOc2ccc(Cl)cc2)cc1Nc1ccccc1 | > 100 µM (inactive) |  | > 100 µM (inactive) | 39.9 µM (inactive) | > 100 µM (inactive) | > 100 µM (inactive) | > 100 µM (inactive) | > 100 µM (inactive) | > 100 µM (inactive) |  | > 100 | > 100 µM (inactive) | > 100 µM (inactive) | > 100 µM (inactive) |  | > 100 µM (inactive) | > 100 µM (inactive) |  | > 100 µM (inactive)
Cn1c(=O)cc(NCc2ccc(Cl)cc2)[nH]c1=O | > 100 µM (inactive) | > 100 µM (inactive) | > 100 µM (inactive) | 18.8 µM (inactive) | > 100 µM (inactive) | 22.4 µM (inactive) |  | > 100 µM (inactive) | > 100 µM (inactive) | 44.4 µM (inactive) | > 100 | > 100 µM (inactive) | 52.6 µM (inactive) |  | 76.9 µM (inactive) | > 100 µM (inactive) | > 100 µM (inactive) | 49.2 µM (inactive) | 
O/N=C1/CCCc2nonc21 | > 100 µM (inactive) | > 100 µM (inactive) | > 100 µM (inactive) | > 100 µM (inactive) | > 100 µM (inactive) | > 100 µM (inactive) | > 100 µM (inactive) | > 100 µM (inactive) | > 100 µM (inactive) | > 100 µM (inactive) | > 100 | > 100 µM (inactive) | > 100 µM (inactive) | > 100 µM (inactive) |  | > 100 µM (inactive) | > 100 µM (inactive) | > 100 µM (inactive) | > 100 µM (inactive)
COc1cc2nc(-c3cccs3)nc(Nc3cccc([N+](=O)[O-])c3)c2cc1OC | 17.4 µM (inactive) | 18.2 µM (inactive) | 28.1 µM (inactive) | 20.3 µM (inactive) | 39 µM (inactive) | 18.7 µM (inactive) | 24.9 µM (inactive) | 17.3 µM (inactive) | 17.8 µM (inactive) | 21.5 µM (inactive) | 16.5 | 17 µM (inactive) | 17.8 µM (inactive) | 31.5 µM (inactive) | 19.5 µM (inactive) | 21.9 µM (inactive) |  | 18 µM (inactive) | 10.8 µM (inactive)
COc1ccccc1N1CCN(CCCNC(=O)c2cc(Cl)c(N)c(Cl)c2)CC1 | 20 µM (inactive) | 28.4 µM (inactive) | 24.1 µM (inactive) | 77.4 µM (inactive) |  | 29.7 µM (inactive) | 19.8 µM (inactive) | 71.6 µM (inactive) | 44.6 µM (inactive) | 47.5 µM (inactive) | 18.5 | 19.4 µM (inactive) | 31 µM (inactive) | 29.7 µM (inactive) |  |  |  | 22.9 µM (inactive) | 12.7 µM (inactive)
CCC(CCN)(CCN)[N+](=O)[O-] | > 100 µM (inactive) |  | > 100 µM (inactive) | > 100 µM (inactive) | > 100 µM (inactive) |  | > 100 µM (inactive) | > 100 µM (inactive) | > 100 µM (inactive) | > 100 µM (inactive) | > 100 | > 100 µM (inactive) | > 100 µM (inactive) |  | > 100 µM (inactive) | > 100 µM (inactive) | > 100 µM (inactive) | > 100 µM (inactive) | > 100 µM (inactive)
O=C1C[C@@H](c2ccccc2)O[C@@H](c2ccccc2)C1 | 84.7 µM (inactive) | > 100 µM (inactive) | > 100 µM (inactive) | > 100 µM (inactive) | > 100 µM (inactive) | > 100 µM (inactive) | > 100 µM (inactive) | > 100 µM (inactive) | > 100 µM (inactive) | > 100 µM (inactive) | > 100 | > 100 µM (inactive) | > 100 µM (inactive) | > 100 µM (inactive) | > 100 µM (inactive) | > 100 µM (inactive) | 58.6 µM (inactive) | > 100 µM (inactive) | 
NNc1ccccc1Cl | > 100 µM (inactive) | > 100 µM (inactive) | > 100 µM (inactive) | > 100 µM (inactive) | 4.34 µM (inactive) | > 100 µM (inactive) | 36.2 µM (inactive) | > 100 µM (inactive) | > 100 µM (inactive) | > 100 µM (inactive) | > 100 | > 100 µM (inactive) | > 100 µM (inactive) | 43.1 µM (inactive) | > 100 µM (inactive) | 30.9 µM (inactive) | > 100 µM (inactive) | > 100 µM (inactive) | 
O=c1c(C(c2ccc(-c3ccccc3)cc2)c2c(O)oc3ccccc3c2=O)c(O)oc2ccccc12 | 16.7 µM (inactive) | 23.2 µM (inactive) | 20.3 µM (inactive) | 21.8 µM (inactive) | 45.5 µM (inactive) | 24.1 µM (inactive) | 33.5 µM (inactive) | 34.8 µM (inactive) |  | 17.2 µM (inactive) | 19.1 |  | 23.2 µM (inactive) | 31.3 µM (inactive) | 19.2 µM (inactive) | 19.9 µM (inactive) | 19.4 µM (inactive) | 23.3 µM (inactive) | 
